Results from PubChem BioAssay (NCI).
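A five-concentration, 48-hour dose response in 96-well plates underlies each endpoint, interpolated linearly between surrounding concentrations. GI50 = concentration required for 50% inhibition of growth. TGI: total growth inhibition.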

Experiments:
Assay in all cases: NCI anticancer screen, dose series, 48 h
HCT-116 colon = tested on: HCT-116 colon
HCT-15 colon = tested on: HCT-15 colon
MOLT-4 leukemia = tested on: MOLT-4 leukemia
SF-295 CNS = tested on: SF-295 CNS
SK-MEL-2 melanoma = tested on: SK-MEL-2 melanoma
A498 renal = tested on: A498 renal
NCI-H226 lung = tested on: NCI-H226 lung
T-47D breast = tested on: T-47D breast

| SMILES | GI50 (HCT-116 colon) [µM] | TGI (HCT-116 colon) [µM] | GI50 (HCT-15 colon) [µM] | TGI (HCT-15 colon) [µM] | GI50 (MOLT-4 leukemia) [µM] | TGI (MOLT-4 leukemia) [µM] | GI50 (SF-295 CNS) [µM] | TGI (SF-295 CNS) [µM] | GI50 (SK-MEL-2 melanoma) [µM] | TGI (SK-MEL-2 melanoma) [µM] | GI50 (A498 renal) [µM] | TGI (A498 renal) [µM] | GI50 (NCI-H226 lung) [µM] | TGI (NCI-H226 lung) [µM] | GI50 (T-47D breast) [µM] | TGI (T-47D breast) [µM] |
| --- | --- | --- | --- | --- | --- | --- | --- | --- | --- | --- | --- | --- | --- | --- | --- | --- |
| COc1ccc(/C=N/N=C(\[O-])c2ccncc2)cc1F.COc1ccc(/C=N\N=C(/[O-])c2ccncc2)cc1F.[Cu+2] | 27 | > 100 | 52.6 | > 100 | 26 | > 100 | 11.2 | 26.5 | 23 | 53.2 | – | – | – | – | – | – |
| Cc1c(C(=O)O[C@H]2[C@@H]3[C@H](C)CC[C@H]3[C@]3(C)O[C@@]2(C2CCCCC2)C[C@H]3OC(=O)CO)ccc2ccccc12 | 7.57 | 14.5 | 7.86 | 15.2 | 7.15 | 17.7 | 7.04 | 13.6 | 9.19 | 16.7 | 0.0173 | 0.144 | 7.67 | 15.1 | 5.37 | 11.6 |
| O=C(CCl)Nc1cc(O)c2c(c1)C(=O)c1cccc(O)c1C2=O | 0.646 | 2.12 | 0.62 | 2.01 | 0.321 | 1.76 | 2.28 | 7.69 | 1.49 | 3.93 | 3.17 | 36.6 | 1.31 | 4.93 | 1.19 | 3.61 |
| C=CCCC(=O)N1C=CC(=O)[C@H](O)[C@@H]1/C=C/c1ccccc1 | 6.24 | > 32.5 | 2.39 | > 32.5 | 15.6 | > 32.5 | 10.7 | > 32.5 | > 32.5 | > 32.5 | > 32.5 | > 32.5 | 9.57 | > 32.5 | 15.5 | > 32.5 |
| COc1cc([C@@H]2c3cc4c(cc3C[C@H]3COC(=O)[C@@H]32)OCO4)cc2c1OCO2 | – | – | – | > 100 | – | > 100 | – | < 0.01 | – | < 0.01 | – | – | – | < 0.01 | – | – |
| O=C(CC(=O)c1ccccc1)c1ccccc1 | 16.6 | > 100 | 2.06 | 6.82 | 17.3 | > 100 | 17.3 | 99.7 | 87 | > 100 | – | – | 37.2 | > 100 | 14.9 | 46.1 |
| COc1cc2c(cc1OC)-c1ncc3cc4c(cc3c1C2)OCO4 | 11.1 | 23 | > 100 | > 100 | 4.14 | 20.4 | 46.2 | > 100 | 32.2 | 75.8 | – | – | – | – | 71.2 | > 100 |
| CN(C)CCNc1nc2ccccc2c2c(=O)c3ccccc3sc12 | 1.41 | 2.79 | 1.97 | 4.85 | 2.22 | 6.1 | 1.76 | 4.03 | 1.78 | 3.41 | – | – | 1.77 | 5.82 | 4.91 | 22.9 |
| C#Cc1cc2c(N)c(C(=O)c3cc(OC)c(OC)c(OC)c3)[nH]c2cc1OC | 0.431 | > 100 | 0.46 | > 100 | 0.903 | 95.2 | – | – | 0.572 | 62.9 | 0.487 | 16.9 | 5.74 | > 100 | 0.449 | 54.7 |
| N#Cc1cccc(OCc2ccccc2COc2cccc(C#N)c2)c1 | 22 | 93.3 | > 100 | > 100 | > 100 | > 100 | 5.64 | 20.3 | > 100 | > 100 | – | – | 29.1 | 88.1 | 55.6 | > 100 |
| COc1cc(/C=N\O)nc(-c2ccccn2)c1 | – | > 100 | – | > 100 | – | > 100 | – | > 100 | – | > 100 | – | 9.22 | – | – | – | > 100 |
| COc1c(N2CCN(Cn3c(O)c(N=NC(=O)c4ccncc4)c4cc(F)ccc43)C(C)C2)c(F)cc2c(=O)c(C(=O)O)cn(C3CC3)c12 (configuration not stated) | 8.24 | 15 | 17 | > 50 | 39.1 | > 50 | 23.9 | > 50 | > 50 | > 50 | 13.3 | > 50 | 25.4 | > 50 | – | – |
| O=C(c1ccccc1)C1C(C(=O)c2ccccc2)C(c2ccccc2)N(c2ccccc2)C1c1ccccc1 (configuration not stated) | – | > 100 | – | > 100 | – | > 100 | – | > 100 | – | > 100 | – | – | – | > 100 | – | > 100 |
| C1C[OH+]CC[OH+]CC[OH+]CC[OH+]CC[OH+]CC[OH+]1.[Cl-].[Nb+5] | > 100 | > 100 | > 100 | > 100 | > 100 | > 100 | > 100 | > 100 | > 100 | > 100 | > 100 | > 100 | > 100 | > 100 | – | – |
| ClCC#CCSc1ncnc2c1ncn2CC#CCCl | 1.42 | 2.93 | 1.68 | 5.97 | 2.68 | 14.1 | 2.05 | 4.59 | 1.75 | 4.79 | 1.75 | 4.75 | – | – | 1.33 | 2.68 |
| CN1CCN(CCOc2ccc(-c3cnc4c(-c5ccc(F)cc5)cnn4c3)cc2)CC1 | 1.55 | 3.05 | 1.32 | 2.75 | 1.56 | 3.59 | 1.73 | 3.23 | 2.09 | 4.31 | 1.64 | 4.89 | – | – | 1.49 | 3.86 |
| Cc1cc(O)c(C(c2ccncc2)c2c(O)cc(C)[nH]c2=O)c(=O)[nH]1 | – | > 100 | – | > 100 | – | > 100 | – | > 100 | – | – | – | – | – | – | – | > 100 |
| CCc1nc(-n2c(-c3ccccc3)nc3ccccc3c2=O)nc(N)c1-c1ccc(Cl)cc1 | 3.28 | > 100 | 6.43 | > 100 | 6.13 | > 100 | 2.26 | 20.2 | – | – | 25 | 92.7 | 69.2 | > 100 | 27 | 81 |
| O=C(Nc1cccc(C(F)(F)F)c1)c1cc(Br)cc(Br)c1O | – | 5.44 | – | > 10 | – | > 10 | – | 7.19 | – | 5.07 | – | – | – | 9.42 | – | 9.69 |
